{"source": "paper PMC6736866", "about": "“Electron cryomicroscopy observation of acyl carrier protein translocation in type I fungal fatty acid synthase” (Scientific Reports, 2019)", "key": {"[1]": {"target": "T1, C. albicans type I fungal fatty acid synthase (FAS) (Candida albicans, UniProt P34731+P43098)", "T1 construct": "gene FAS1; endogenous alpha6beta6 complex, native purification by anti-FLAG; C-terminal 6xHIS-3xFLAG on FAS1 (beta) kept; holo-ACP", "assay": "cryoEM structure", "format": "binding", "conditions": "ER domain (beta chain); Apo state and KS-stalled state"}, "[2]": {"target": "T2, S. cerevisiae type I fungal fatty acid synthase (FAS) (Saccharomyces cerevisiae, UniProt P07149+P19097)", "T2 construct": "gene FAS1; endogenous alpha6beta6 heterododecamer, native purification by anti-FLAG; C-terminal 3xFLAG on FAS1 (beta) kept; beta 230 kDa, alpha 220 kDa; holo-ACP", "T2 sequence (P07149 whole entry, the tested form may be a part)": "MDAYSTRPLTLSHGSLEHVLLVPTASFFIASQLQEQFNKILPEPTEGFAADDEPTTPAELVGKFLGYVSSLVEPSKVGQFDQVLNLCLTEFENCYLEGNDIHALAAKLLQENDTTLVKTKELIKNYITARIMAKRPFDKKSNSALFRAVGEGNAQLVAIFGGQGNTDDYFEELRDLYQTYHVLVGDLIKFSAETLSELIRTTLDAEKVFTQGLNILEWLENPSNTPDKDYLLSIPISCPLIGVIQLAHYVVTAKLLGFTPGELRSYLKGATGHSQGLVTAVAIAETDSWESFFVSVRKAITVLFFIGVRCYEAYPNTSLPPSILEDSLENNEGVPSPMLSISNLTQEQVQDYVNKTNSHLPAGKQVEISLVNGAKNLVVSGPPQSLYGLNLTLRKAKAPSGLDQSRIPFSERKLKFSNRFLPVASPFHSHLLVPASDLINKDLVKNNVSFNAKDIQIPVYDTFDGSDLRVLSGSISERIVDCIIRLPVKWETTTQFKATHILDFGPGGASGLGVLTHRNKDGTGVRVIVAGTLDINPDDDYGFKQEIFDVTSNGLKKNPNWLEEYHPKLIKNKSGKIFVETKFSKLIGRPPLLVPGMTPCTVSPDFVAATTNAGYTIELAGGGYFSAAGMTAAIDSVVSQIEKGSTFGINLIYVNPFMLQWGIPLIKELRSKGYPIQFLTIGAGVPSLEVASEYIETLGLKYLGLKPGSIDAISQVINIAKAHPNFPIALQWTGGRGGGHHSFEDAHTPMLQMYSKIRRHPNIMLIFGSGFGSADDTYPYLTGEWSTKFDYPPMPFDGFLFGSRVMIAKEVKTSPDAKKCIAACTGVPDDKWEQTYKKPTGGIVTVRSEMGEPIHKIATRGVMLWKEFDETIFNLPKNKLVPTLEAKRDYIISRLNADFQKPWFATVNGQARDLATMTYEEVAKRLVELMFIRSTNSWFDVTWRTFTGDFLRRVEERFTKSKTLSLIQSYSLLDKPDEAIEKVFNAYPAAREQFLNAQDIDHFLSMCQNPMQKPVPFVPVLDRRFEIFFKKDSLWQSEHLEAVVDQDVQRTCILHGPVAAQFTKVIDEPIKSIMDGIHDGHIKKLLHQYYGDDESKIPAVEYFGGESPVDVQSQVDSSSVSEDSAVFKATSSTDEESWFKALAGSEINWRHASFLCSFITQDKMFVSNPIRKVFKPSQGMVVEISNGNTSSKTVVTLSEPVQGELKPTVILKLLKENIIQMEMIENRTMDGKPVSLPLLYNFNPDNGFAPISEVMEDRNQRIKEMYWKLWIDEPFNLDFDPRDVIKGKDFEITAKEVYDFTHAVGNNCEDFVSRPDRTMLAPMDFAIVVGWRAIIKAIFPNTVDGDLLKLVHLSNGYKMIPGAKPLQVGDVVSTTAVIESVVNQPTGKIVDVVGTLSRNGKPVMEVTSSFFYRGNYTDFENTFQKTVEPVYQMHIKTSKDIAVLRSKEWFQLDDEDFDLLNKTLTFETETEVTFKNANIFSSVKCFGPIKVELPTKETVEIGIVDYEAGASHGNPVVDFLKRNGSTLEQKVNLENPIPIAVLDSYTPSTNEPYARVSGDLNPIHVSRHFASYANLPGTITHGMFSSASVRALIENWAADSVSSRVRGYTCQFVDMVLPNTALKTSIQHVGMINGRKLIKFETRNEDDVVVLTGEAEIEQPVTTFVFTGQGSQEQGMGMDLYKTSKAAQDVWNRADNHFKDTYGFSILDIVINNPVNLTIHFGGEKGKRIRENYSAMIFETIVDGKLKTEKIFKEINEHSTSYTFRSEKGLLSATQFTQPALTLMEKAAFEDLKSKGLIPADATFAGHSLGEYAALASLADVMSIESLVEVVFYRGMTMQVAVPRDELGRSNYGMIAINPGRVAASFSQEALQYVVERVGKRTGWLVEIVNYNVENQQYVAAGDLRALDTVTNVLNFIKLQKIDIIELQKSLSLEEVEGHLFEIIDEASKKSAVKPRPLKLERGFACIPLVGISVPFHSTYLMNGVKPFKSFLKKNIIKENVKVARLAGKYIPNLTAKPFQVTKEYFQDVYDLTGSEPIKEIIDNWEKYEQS", "T2 sequence (P19097 whole entry, the tested form may be a part)": "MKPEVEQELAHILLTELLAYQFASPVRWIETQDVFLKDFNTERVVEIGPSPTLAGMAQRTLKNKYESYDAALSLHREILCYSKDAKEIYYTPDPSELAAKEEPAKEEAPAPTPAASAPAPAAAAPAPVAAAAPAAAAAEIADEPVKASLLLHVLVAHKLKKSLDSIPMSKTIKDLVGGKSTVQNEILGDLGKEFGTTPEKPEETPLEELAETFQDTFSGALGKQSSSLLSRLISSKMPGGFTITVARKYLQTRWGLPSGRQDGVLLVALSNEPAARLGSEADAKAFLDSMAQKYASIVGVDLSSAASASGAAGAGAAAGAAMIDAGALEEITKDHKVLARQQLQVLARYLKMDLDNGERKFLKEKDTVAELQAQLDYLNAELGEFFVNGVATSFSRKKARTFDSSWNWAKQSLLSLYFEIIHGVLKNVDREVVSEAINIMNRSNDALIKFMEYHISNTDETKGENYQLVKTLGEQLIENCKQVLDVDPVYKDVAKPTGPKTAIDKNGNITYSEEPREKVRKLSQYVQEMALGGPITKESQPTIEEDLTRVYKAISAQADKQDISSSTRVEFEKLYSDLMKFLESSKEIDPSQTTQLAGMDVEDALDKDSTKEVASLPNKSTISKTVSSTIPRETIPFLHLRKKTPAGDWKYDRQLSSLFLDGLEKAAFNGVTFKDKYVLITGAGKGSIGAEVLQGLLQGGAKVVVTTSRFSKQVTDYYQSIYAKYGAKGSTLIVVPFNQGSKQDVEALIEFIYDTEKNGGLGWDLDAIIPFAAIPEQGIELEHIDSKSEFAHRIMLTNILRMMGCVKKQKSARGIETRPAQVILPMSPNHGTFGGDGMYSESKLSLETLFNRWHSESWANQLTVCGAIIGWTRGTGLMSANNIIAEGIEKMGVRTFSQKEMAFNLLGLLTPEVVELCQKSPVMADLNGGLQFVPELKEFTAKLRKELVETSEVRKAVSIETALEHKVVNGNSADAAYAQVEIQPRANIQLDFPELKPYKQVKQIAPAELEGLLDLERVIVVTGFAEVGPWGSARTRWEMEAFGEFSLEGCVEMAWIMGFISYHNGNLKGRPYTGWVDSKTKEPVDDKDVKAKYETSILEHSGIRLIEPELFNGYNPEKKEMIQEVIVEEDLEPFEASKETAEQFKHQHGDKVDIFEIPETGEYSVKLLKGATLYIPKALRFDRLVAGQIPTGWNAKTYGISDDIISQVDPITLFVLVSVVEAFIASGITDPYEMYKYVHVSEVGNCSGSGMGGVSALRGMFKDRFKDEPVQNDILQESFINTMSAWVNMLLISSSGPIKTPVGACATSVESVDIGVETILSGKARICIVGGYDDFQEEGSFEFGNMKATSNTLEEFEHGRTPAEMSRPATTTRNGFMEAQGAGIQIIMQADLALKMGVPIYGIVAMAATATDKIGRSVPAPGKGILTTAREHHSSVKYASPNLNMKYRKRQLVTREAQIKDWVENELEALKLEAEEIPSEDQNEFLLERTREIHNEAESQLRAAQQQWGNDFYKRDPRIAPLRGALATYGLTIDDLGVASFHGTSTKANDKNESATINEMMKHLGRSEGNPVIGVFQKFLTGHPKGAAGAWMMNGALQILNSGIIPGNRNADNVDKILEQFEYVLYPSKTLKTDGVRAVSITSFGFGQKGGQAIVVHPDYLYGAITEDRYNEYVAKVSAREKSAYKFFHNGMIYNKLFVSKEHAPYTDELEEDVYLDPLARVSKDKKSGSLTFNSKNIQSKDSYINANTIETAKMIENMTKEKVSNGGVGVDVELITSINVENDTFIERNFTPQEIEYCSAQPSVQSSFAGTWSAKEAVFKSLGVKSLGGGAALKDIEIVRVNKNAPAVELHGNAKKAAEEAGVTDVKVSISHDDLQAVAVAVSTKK", "assay": "cryoEM structure", "format": "binding", "conditions": "ER domain (beta chain); Apo state and KS-stalled state"}, "[3]": {"target": "T2, S. cerevisiae type I fungal fatty acid synthase (FAS)", "assay": "cryoEM structure; NADPH oxidation at […] nm", "format": "biochemical", "conditions": "ER domain near FMN (beta chain); KS-stalled state, 3 mM NADPH, cerulenin-inhibited; weak density, partial binding"}, "[4]": {"target": "T1, C. albicans type I fungal fatty acid synthase (FAS)", "assay": "cryoEM structure; NADPH oxidation at […] nm", "format": "biochemical", "conditions": "ER domain near FMN (beta chain); KS-stalled state, 3 mM NADPH, cerulenin-inhibited; weak density, partial binding"}, "[5]": {"target": "T2, S. cerevisiae type I fungal fatty acid synthase (FAS)", "format": "biochemical"}}}
{"compound": "Cc1cc2nc3c(=O)[nH]c(=O)nc-3n(C[C@H](O)[C@H](O)[C@H](O)COP(=O)(O)O)c2cc1C", "note": "[flavin mononucleotide]", "values": [{"measurement": "cryoEM structure", "setting": "[1]", "value": "catalytic histidine can be modeled with two side chain orientations, one facing FMN"}, {"measurement": "cryoEM structure", "setting": "[2]", "value": "the catalytic histidine side chain is in a single conformation facing FMN"}]}
{"compound": "NC(=O)C1=CN([C@@H]2O[C@H](COP(=O)(O)OP(=O)(O)OC[C@H]3O[C@@H](n4cnc5c(N)ncnc54)[C@H](OP(=O)(O)O)[C@@H]3O)[C@@H](O)[C@H]2O)C=CC1", "note": "[NADPH]", "values": [{"measurement": "cryoEM structure; NADPH oxidation at 340 nm", "setting": "[3]", "value": "Weak NADPH density can also be seen in proximity of FMN"}, {"measurement": "cryoEM structure; NADPH oxidation at 340 nm", "setting": "[4]", "value": "Weak density can be seen for the NADPH in proximity of FMN"}]}
{"compound": "C/C=C/C/C=C/CCC(=O)[C@H]1O[C@H]1C(N)=O", "note": "[cerulenin]", "values": [{"measurement": "not named", "setting": "[5]", "value": "are sensitive to cerulenin, a covalent KS-inhibitor"}]}
